{"source": "patent US10669287B2", "about": "“Curcumin-boron complex and pharmaceutical containing same” (JAPAN SCIENCE AND TECHNOLOGY AGENCY, priority 2016, dated 2020)", "key": {"Aβ1-42 [1]": {"biological_target": "T1, Aβ1-42 (Homo sapiens, UniProt P05067)", "T1 construct": "phosphate buffer (pH 7.4)/cell culture solution (containing 0.1% horse serum) (1:3) containing Aβ1-42 (10 μM)", "T1 sequence (P05067 672-713)": "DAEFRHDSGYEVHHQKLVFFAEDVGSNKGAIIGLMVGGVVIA", "assay": "In vitro oxygenation experiment using Aβ1-42 as a substrate (MALDI-TOF MS), Test Example 1", "format": "biochemical", "details": "test compound 1 μM, Aβ1-42 10 μM, LED irradiation at both 660 nm and 730 nm, 37° C.", "method": "An in vitro oxygenation experiment using Aβ1-42 as a substrate was conducted to confirm that each of the inventive compounds actually have Aβ oxygenation activity. A test compound (1 μM in each case) was added to phosphate buffer (pH 7.4)/cell culture solution (containing 0.1% horse serum) (1:3) containing Aβ1-42 (10 μM), and incubated under LED irradiation (wavelength: 660 nm, 730 nm) at 37° C., and then the reaction was tracked by using a mass spectrometer (MALDI-TOF MS). The native Aβ1-42 and the Na^+ adduct were mainly observed before light irradiation. After light irradiation, an ion peak indicating the presence of the oxygenated form was observed over time (FIG. 1, FIG. 2)."}, "PC 12 cells": {"test_system": "PC 12 cells", "assay": "Cytotoxicity under light irradiation, WST-8 cell viability, Test Example 2", "format": "cell-based, rat", "details": "LED 660 nm, 10 mW, 5 minutes, then 48 hours", "procedure": "A culture medium for rat adrenal medulla-derived pheochromocytoma PC 12 cells (purchased from RIKEN, Japan) seeded on a poly-D-lysine-coated 96-well plate was replaced with 75 μL of a Dulbecco's modified Eagle's medium containing 0.1% horse serum, and the culture was incubated in a 5% CO2 atmosphere at 37° C. for 1 day, and 25 μL of a phosphate buffer saline (pH 7.4) containing a inventive compound was then added thereto. Thereafter, the mixed solution was incubated under LED irradiation (wavelength: 660 nm, 10 mW) (without light irradiation for dark) at 37° C. for 5 minutes. Further, the cell culture plate containing the reaction solution was incubated in a 5% CO2 atmosphere at 37° C. for 48 hours. Finally, the Cell Count Reagent SF (10 μL: purchased from NACALAI TESQUE, INC.) containing WST-8 was added, and the culture was incubated in a 5% CO2 atmosphere at 37° C. for 3 hours, and thereafter the cell viability was determined from the absorbance at 450 nm (reference wavelength: 655 nm)."}, "Arctic Aβ1-42": {"test_system": "Arctic Aβ1-42", "assay": "Oxygenation reaction in mouse brain extract, Test Example 6", "format": "biochemical", "details": "mouse brain lysate, light 780 nm", "method": "The brain excised from an eight-month-old App knock-in (App^NL-C-F/NL-C-F) mouse (Alzheimer's model mouse) was separated into the cerebral cortex, the hippocampus, and the residual brain tissues. The cerebral cortex and the hippocampus were homogenized together in a phosphate buffer saline, and the suspension was stored at −80° C. […] At an arbitrary point of time, an arbitrary aliquot of the reaction mixture was diluted with formic acid to a final concentration of 70%, concentrated, and redissolved in a 6 M aqueous solution of urea."}, "[2]": {"assay": "Conversion of furfuryl alcohol under different glycerol concentrations, Test Example 8", "details": "compound 2 μM, furfuryl alcohol 2 mM, glycerol-methanol 0, 10, 30, or 50% glycerol, 780 nm, room temperature", "method": "To a glycerol-methanol mixed solvent (glycerol: 0, 10, 30, or 50%), furfuryl alcohol or N-benzoyl-Met (2 mM in each case) and the compound E (2 μM) were added, and the mixture was subjected to light irradiation (wavelength: 780 nm) at room temperature, and the concentration of furfuryl alcohol or N-benzoyl-Met was quantified by using a UV absorptiometer with LC/MS 10 minutes, 20 minutes, and 30 minutes after the initiation of light irradiation."}, "Aβ peptide": {"biological_target": "T2, Aβ peptide (Homo sapiens, UniProt P05067)", "T2 construct": "Aβ1-42 isopeptide (concentration: 250 μM in 0.1% aqueous solution of trifluoroacetic acid)", "T2 sequence (P05067 672-713)": "as above", "assay": "Aβ selectivity of oxygenation, Test Example 9", "format": "biochemical", "details": "peptide 20 μM, catalyst 5 μM (25 mol %), 780 nm (7 mW), 37° C., 30 minutes", "method": "(§1) Aβ1-42 isopeptide (concentration: 250 μM in 0.1% aqueous solution of trifluoroacetic acid), angiotensin IV (200 μM aqueous solution), Met-enkephalin (200 μM aqueous solution), and somatostatin (200 μM aqueous solution) were added to a phosphate buffer or phosphate buffer saline (pH 7.4) (with 0.1 M aqueous solution of sodium hydroxide, as necessary) so that a final peptide concentration of 20 μM or 40 μM (pH 7.4) was reached. Before being subjected to oxygenation reaction, the Aβ1-42 solution was incubated at 37° C. for 1 to 3 hours. The phosphate buffer containing 40 μM of Aβ was diluted with a Dulbecco's modified Eagle's medium (DMEM, Life Technologies) containing 0.1% horse serum and buffered with 25 mM of 4-(2-hydroxyethyl)-1-piperazineethanesulfonic acid (HEPES).\n(§2) Solutions of the compounds with a final concentration of 2 μM were used for evaluation of oxygenation of Aβ1-42. Solutions of the compounds with a final concentration of 5 μM were used for evaluation of peptide selectivity. […] A control group without light irradiation was additionally prepared. Reaction was analyzed through monitor analysis with a MALDI-TOF MS. Degree of oxygenation was determined as a ratio: degree of oxygenation (%)=(total of MS intensities for n[O] adducts)/(MS intensity for native+total of MS intensities for n[O] adducts)×100. Aliquots of each reaction solution were desalted with a ZipTip U-C18 (Merck Millipore), as necessary, before mass spectrometry."}, "Met-enkephalin (ME)": {"biological_target": "T3, Met-enkephalin (ME) (Homo sapiens, UniProt P01210)", "T3 construct": "angiotensin-IV (AT4), Met-enkephalin (ME), or somatostatin (Sst) (20 μM in each case)", "assay": "Aβ selectivity of oxygenation, Test Example 9", "format": "biochemical", "details": "peptide 20 μM, catalyst 5 μM, 780 nm (7 mW), 37° C., 30 minutes", "method": "as §1, §2"}, "angiotensin-IV (AT4)": {"biological_target": "T4, angiotensin-IV (AT4) (Homo sapiens, UniProt P01019)", "T4 construct": "angiotensin-IV (AT4), Met-enkephalin (ME), or somatostatin (Sst) (20 μM in each case)", "assay": "Aβ selectivity of oxygenation, Test Example 9", "format": "biochemical", "details": "peptide 20 μM, catalyst 5 μM, 780 nm (7 mW), 37° C., 30 minutes", "method": "as §1, §2"}, "somatostatin (Sst)": {"biological_target": "T5, somatostatin (Sst) (Homo sapiens, UniProt P61278)", "T5 construct": "angiotensin-IV (AT4), Met-enkephalin (ME), or somatostatin (Sst) (20 μM in each case)", "assay": "Aβ selectivity of oxygenation, Test Example 9", "format": "biochemical", "details": "peptide 20 μM, catalyst 5 μM, 780 nm (7 mW), 37° C., 30 minutes", "method": "as §1, §2"}, "Aβ1-42 [3]": {"biological_target": "T1, Aβ1-42", "assay": "Degree of oxygenation of pre-aggregated Aβ1-42 (MALDI-TOF MS), Test Example 10", "format": "biochemical", "details": "pre-aggregated Aβ1-42 20 μM, catalyst 2 μM, phosphate buffer pH 7.4, 780 nm (14 mW), 37° C., 30 minutes", "method": "as §1\nSolutions of the compounds with a final concentration of 2 μM were used for evaluation of oxygenation of Aβ1-42. Solutions of the compounds with a final concentration of 5 μM were used for evaluation of peptide selectivity. Each mixture was subjected to light irradiation with an LED (wavelength: 500, 660, or 780 nm) at a distance of approximately 5 to 10 cm at room temperature. A control group without light irradiation was additionally prepared. Reaction was analyzed through monitor analysis with a MALDI-TOF MS. Degree of oxygenation was determined as a ratio: degree of oxygenation (%)=(total of MS intensities for n[O] adducts)/(MS intensity for native+total of MS intensities for n[O] adducts)×100. Aliquots of each reaction solution were desalted with a ZipTip U-C18 (Merck Millipore), as necessary, before mass spectrometry.\na: A phosphate buffer (pH 7.4) solution containing pre-aggregated Aβ1-42 (20 μM, incubated at 37° C. for 3 hours) and a catalyst (2 μM) was subjected to light irradiation (wavelength: 660 nm) at 37° C. for 30 minutes. Thereafter, the reaction mixture was analyzed by using a MALDI-TOF MS.\na: A phosphate buffer (pH 7.4) containing pre-aggregated Aβ1-42 (20 μM, obtained through incubation at 37° C. for 3 hours) and a catalyst (2 μM) were subjected to light irradiation at 780 nm (14 mW) at 37° C. for 30 minutes. The reaction mixture was analyzed by using a MALDI-TOF MS."}, "[4]": {"assay": "Maximum wavelength λmax of photocatalysts", "format": "physicochemical", "details": "Table 2"}}, "data": [{"smiles": "O=C(O)CCCCCN1CCCc2cc(/C=C/C3=[O+][B-](F)(C(F)(F)C(F)(F)F)OC(/C=C/c4cc5c6c(c4)CCCN6CCC5)=C3Br)ccc21", "note": "(stereo not drawn) [Compound E]", "values": [{"measurement": "oxygenation of Aβ1-42 under light irradiation", "setting": "Aβ1-42 [1]", "result": "oxygenation of the Aβ proceeded"}, {"measurement": "toxicity under light irradiation (ranking)", "setting": "PC 12 cells", "result": "the lowest"}, {"measurement": "decrease of peak intensity (conversion) of Arctic Aβ1-42", "setting": "Arctic Aβ1-42; 30 minutes", "result": 43, "unit": "%"}, {"measurement": "decrease of peak intensity (conversion) of Arctic Aβ1-42", "setting": "Arctic Aβ1-42; 60 minutes", "result": 60, "unit": "%"}, {"measurement": "decrease of peak intensity (conversion) of Arctic Aβ1-42", "setting": "Arctic Aβ1-42; 150 minutes", "result": 83, "unit": "%"}, {"measurement": "oxygenation reaction rate of furfuryl alcohol", "setting": "[2]", "result": "higher as the viscosity of the solvent was higher"}, {"measurement": "oxygenation of pre-aggregated Aβ peptide", "setting": "Aβ peptide", "result": 44, "unit": "%"}, {"measurement": "oxygenation rate of Met-enkephalin", "setting": "Met-enkephalin (ME)", "result": "lower than 5%"}, {"measurement": "oxygenation rate of angiotensin-IV", "setting": "angiotensin-IV (AT4)", "result": "lower than 5%"}, {"measurement": "oxygenation rate of somatostatin", "setting": "somatostatin (Sst)", "result": "lower than 5%"}, {"measurement": "Degree of oxygenation (%) of Aβ42 (λ = 780 nm)", "setting": "Aβ1-42 [3]", "result": 58, "unit": "%"}, {"measurement": "Maximum wavelength λmax (nm)", "setting": "[4]", "result": 639, "unit": "nm"}]}]}
